The target of test [1] is T1, Muscarinic acetylcholine receptor M1 (Homo sapiens, UniProt P11229).
T1 sequence (P11229 whole entry): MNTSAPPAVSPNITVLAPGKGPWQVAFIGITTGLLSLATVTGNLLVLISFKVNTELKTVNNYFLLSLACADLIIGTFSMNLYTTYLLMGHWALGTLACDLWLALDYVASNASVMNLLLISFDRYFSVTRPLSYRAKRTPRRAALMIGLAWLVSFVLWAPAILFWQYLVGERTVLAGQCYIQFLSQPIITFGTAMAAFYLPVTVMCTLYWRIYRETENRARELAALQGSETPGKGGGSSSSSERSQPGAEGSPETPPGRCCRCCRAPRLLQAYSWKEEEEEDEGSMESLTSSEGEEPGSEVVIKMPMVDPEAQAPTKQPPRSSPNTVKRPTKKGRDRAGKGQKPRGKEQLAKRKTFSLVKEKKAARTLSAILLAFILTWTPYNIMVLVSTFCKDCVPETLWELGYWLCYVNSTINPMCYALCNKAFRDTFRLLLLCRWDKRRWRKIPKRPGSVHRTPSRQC
Kind of test: Binding affinity against M1 receptor expressed in CHO-K1 cells transfected with human muscarinic receptor sequence using radioligand [3H]quinuclidinyl benzilate ([3H]QNB). In kind it is cell-based.

Test [2] has as its target Muscarinic acetylcholine receptors; M1 & M2 (Homo sapiens) (UniProt P11229+P08172). Kind of test: Ratio of binding affinities towards M2 receptor to M1 receptor. In kind it is protein assay.
Test [3] concerns the target T2, Muscarinic acetylcholine receptor M2 (Rattus norvegicus, UniProt P10980).
T2 sequence (P10980 whole entry): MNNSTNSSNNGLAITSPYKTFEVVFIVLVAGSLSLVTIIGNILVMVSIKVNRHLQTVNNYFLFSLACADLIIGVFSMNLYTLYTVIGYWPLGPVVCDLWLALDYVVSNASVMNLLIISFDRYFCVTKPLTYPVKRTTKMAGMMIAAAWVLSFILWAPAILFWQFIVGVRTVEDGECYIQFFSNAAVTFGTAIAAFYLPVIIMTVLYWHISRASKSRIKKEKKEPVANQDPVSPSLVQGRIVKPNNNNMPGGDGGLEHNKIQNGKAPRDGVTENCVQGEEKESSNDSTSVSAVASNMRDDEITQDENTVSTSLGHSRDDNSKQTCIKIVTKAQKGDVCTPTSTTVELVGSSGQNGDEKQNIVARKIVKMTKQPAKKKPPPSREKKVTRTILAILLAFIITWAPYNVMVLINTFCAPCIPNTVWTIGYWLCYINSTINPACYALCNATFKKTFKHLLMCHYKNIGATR
Kind of test: Binding affinity against M2 receptor in rat brainstem cells using radioligand [3H]quinuclidinyl benzilate ([3H]QNB). In kind it is cell-based, Brain.

Structures are written as SMILES.

Take `C[C@@H]1OC(=O)[C@H]2C[C@H]3CCCC[C@@H]3[C@@H](/C=C/[C@H]3CCC[C@H](C)N3C)[C@@H]12` [HIMBACINE]: the Kd (in general, the equilibrium constant for the complex coming apart) in test [1] is 148 nM; in test [3] it was 10 nM. The Selectivity in test [2] was 14.8.

Turning to `CC(=O)OC[C@H]1C[C@H]2CCCC[C@@H]2[C@@H](/C=C/[C@H]2CCC[C@H](C)N2C)[C@H]1[C@H](C)OC(C)=O`, the equilibrium dissociation constant (Kd) in test [1] stood at 605 nM; in test [3], 249 nM. Further, in test [2], the Selectivity was determined as 2.4.

On to `C[C@@H]1O[C@H](O)[C@H]2C[C@H]3CCCC[C@@H]3[C@@H](/C=C/[C@H]3CCC[C@H](C)N3C)[C@H]21`, for which the equilibrium dissociation constant (Kd) in test [1] stood at 423 nM; in test [3], 96 nM. Also, in test [2], the Selectivity was 4.4.

As for `C[C@@H]1O[C@H](OC(=O)C(C)(C)C)[C@H]2C[C@H]3CCCC[C@@H]3[C@@H](/C=C/[C@H]3CCC[C@H](C)N3C)[C@H]21`, the equilibrium dissociation constant (Kd) in test [1] was 2520 nM; in test [3] it was 464 nM. The Selectivity in test [2] was 5.4.

Regarding `C[C@H](O)[C@H]1[C@@H](CO)C[C@H]2CCCC[C@@H]2[C@H]1/C=C/[C@H]1CCC[C@H](C)N1C`, the dissociation constant Kd in test [1] amounted to 494 nM; in test [3], 293 nM. Also, in test [2], the Selectivity is 1.7.

As for `C[C@@H]1OC[C@H]2C[C@H]3CCCC[C@@H]3[C@@H](/C=C/[C@H]3CCC[C@H](C)N3C)[C@H]21`, the results for the Kd in test [1] and in test [3] were 167 nM and 353 nM, respectively. The Selectivity in test [2] was 0.5.

Take `CC(=O)O[C@H]1O[C@@H](C)[C@@H]2[C@H](/C=C/[C@H]3CCC[C@H](C)N3C)[C@H]3CCCC[C@@H]3C[C@H]12`: the Kd is 866 nM in test [1] and 89 nM in test [3]. Moreover, the Selectivity in test [2] was 9.7.

The record behind these values is ChEMBL document CHEMBL1128141, “Chemical modification of ring c of himbacine: Discovery of a pharmacophoric element for M2-selectivity” (Bioorg Med Chem Lett, 1995).
